Reference: a melting point compilation (Tetko et al.; mined from patent text by program, amines drawn as free bases though some values may be those of a salt)

Row | Compound | melting point
1 | CS(=O)(=S)OCCCCCCCCCCOS(C)(=O)=S (configuration not stated) | 45 to 52 °C
2 | COc1cc(OC)c(F)c(N2Cc3cnc(NC[C@H](O)[C@@H](O)CO)nc3N(C3CCCC3)C2=O)c1 | 86 to 88 °C
3 | COc1ccc(Br)c(-n2c(=O)[nH]c(=O)n(C)c2=O)c1 | 185 to 187 °C
4 | Clc1cc(COCc2cc(Cl)nc(Cl)c2)cc(Cl)n1 | 69.1 °C
5 | CCC(SC(C)=O)C(=O)NC(C)=O (configuration not stated) | 59 to 60 °C
6 | NC(=C[N+](=O)[O-])NC1CCCC1 | 117 to 124 °C
7 | O=C(Nc1ccc(C(F)(F)F)cc1)OCC1(COC(=O)Nc2ccc(C(F)(F)F)cc2)CSc2ccccc2C1=O | 76 to 82 °C
8 | CC(C)C(=O)Nc1cn(-c2cncc(F)c2)nc1C=O | 140 to 142 °C
9 | CCCCc1c(F)c(F)c(NN)c(F)c1F | 80 to 81 °C
10 | CNC(=O)NC(=O)C(CC1CCCC1)c1ccc(C(F)(F)F)c(F)c1 (configuration not stated) | 187 to 189 °C
11 | CC(C)(C)c1cc(C=O)n(Cc2ccc(C(F)(F)F)cc2Cl)n1 | 147 to 149 °C
12 | N#CC(C#N)=C1Sc2nc3ccc(C(F)(F)F)cc3nc2S1 | 197 to 199 °C
13 | CCCCCCOc1ccc2c(COC)c(OCCCCCC)ccc2c1COC | 103 to 104 °C
14 | CC1CCN(C2(c3ccc(C#CC(=O)Nc4ccc(-c5ccc(Cl)cc5)cc4)cc3)CC2)CC1 | 128 to 129 °C
15 | C#CCCCON1Sc2cccc3cccc1c23 | 56 to 59 °C
16 | O=C1OC(=O)c2c1cccc2N1C(=O)CCC1=O | 202 to 205 °C
17 | Cc1cc(CCCOc2c(C)cc(-c3noc(C#N)n3)cc2C)on1 | 93 to 94 °C
18 | COCOc1cc(F)ccc1-c1cc(-c2cccc(NC(=O)CN(C)C)c2)c(C#N)c(NC(=O)c2ccco2)n1 | 168 to 169 °C
19 | N#Cc1cc([N+](=O)[O-])ccc1N1CCC(NCCO)CC1 | 115 °C
20 | CC(C)c1nc(C(C)C)c(CCCCO)c(-c2ccc(F)cc2)c1CO | 135 to 137 °C
21 | CC(C)(C)NCC(O)COc1ccc2c(c1-c1nc(C(F)(F)F)c[nH]1)CCCC2 (configuration not stated) | 203 to 205 °C
22 | COc1ccc(-c2cc3cc(F)c(F)cc3[nH]2)cc1NC(=S)N[C@@H](COC(C)(C)C)C(=O)OC(C)(C)C | 111 to 114 °C
23 | COc1cc(Cc2cnc(NCCO)nc2N)cc(OC)c1OC | 146 °C

Row | Compound | melting point
24 | CC(CO)N1CCN(c2ccccn2)CC1 (configuration not stated) | 62 to 64 °C
25 | CC(C)(C)OC(=O)C[C@H](NC(=O)c1ccc(CCC(=O)NC2=NCCCN2)s1)c1ccc2c(c1)OCO2 | 130 °C
26 | CCN(CC)CCNC(=O)c1cc(Cl)c(N)cc1OCCOC | 108 to 110 °C
27 | CCOc1ccc(NCc2cc(OC)c(OC)c(OC)c2)cc1 | 76 to 78 °C
28 | O=C(O)c1cc(=O)c2cc(F)ccc2[nH]1 | 206 to 210 °C
29 | NS(=O)(=O)c1ccc(-c2cnn(-c3ccc(F)c(Cl)c3)c(=O)c2-c2ccc(F)cc2)cc1 | 208 to 210 °C
30 | O=C(Nc1cccc2c1C(=O)c1c-2n[nH]c1-c1ccc(C(=O)[C@]23CN[C@H](CN2)C3)s1)NN1CCOCC1 | > 300 °C
31 | COC(=O)[C@H]1CC[C@H](n2cnn(-c3ccc(C4CCN(C(=O)C(F)(F)F)CC4)cc3)c2=O)CC1 | 184 to 186 °C
32 | COc1ccc(CC(=O)c2c(O)cc(OC)cc2OC)c(OC)c1 | 116 to 119 °C
33 | CC(C)C1Cc2cnc3c(c2C1(O)CC#N)CCO3 (configuration not stated) | 169 to 170 °C
34 | COC1C(CO)OC(n2c3ccc(C=O)cc3c3c4c(c5c6cc(C=O)ccc6[nH]c5c32)C(=O)NC4=O)C(O)C1O (configuration not stated) | > 300 °C
35 | O=C1NC(C(=O)N2CC(O)CC2C(=O)O)CSCCCCCCCC1CS (configuration not stated) | 124 to 130 °C
36 | CCCCCCOc1ccc(C(=O)Cl)cc1 | 90 to 93 °C
37 | CC1OC1COc1ccc(C(=O)OC(C)(C)C)cc1 (configuration not stated) | 47 to 48 °C
38 | N#Cc1cc(-c2cc(C(F)F)c3c(-c4cccnc4)nn(C4CCCCO4)c3n2)ccc1N (configuration not stated) | 140 °C
39 | O=C(CCC1CCCCC1)NC1N=C(c2ccccc2)c2ccccc2-n2c1noc2=O (configuration not stated) | 226 °C
40 | CCCCCCCCN(CC(=O)NO)S(=O)(=O)c1ccc(C)cc1 | 89 °C
41 | CC(=O)c1cc(C(N)=O)cs1 | 156 to 158 °C
42 | CC(C)(O)C(=O)c1ccc(OCC(=O)O)cc1 | 131 to 134 °C
43 | CCCCOc1ccc(-c2ncc(Br)cn2)cn1 | 134 to 138 °C
44 | CC(C)(C)OC(=O)N1CCc2snc(O)c2C1 | 174 to 177 °C
45 | CCCCCCCCCc1cnc(-c2ccc(O)c(F)c2)nc1 | 46 to 47.5 °C
46 | C=CCc1cc2c(C)c(C#N)c(=O)oc2c(C)c1O | 163 to 164 °C

Now from value to compound:

Row | melting point | Compound
47 | 178 to 183 °C | O=C(O)CCc1ccc(Oc2ccc3c(c2)S(=O)(=O)NC2CCCN32)cc1 (configuration not stated)
48 | 157 to 158 °C | COC(=O)CCc1oc(Sc2ccc(O)cc2)nc1-c1ccccc1
49 | 108 to 110 °C | CCOC(=O)c1cnc2n(c1=O)CCC(C)C2=NNc1ccccc1 (configuration not stated)
50 | 134 °C | NC(=O)C(c1ccccc1)c1ccccn1 (racemic)
51 | 255 to 257 °C | CC(C)=NNc1cnn(-c2cccc(C(F)(F)F)c2)c(=O)c1
52 | 98 to 101 °C | CCC1CC2=C(CO1)C(=O)c1ccccc1C2=O (configuration not stated)
53 | 85 to 86 °C | CCOC(=O)C1=C(C=O)NC(C=O)=C(C(=O)OCC)C1c1ccccc1Cl
54 | 235 to 237 °C | O=C(C=Cc1ccccc1)Nc1ccc(S(=O)(=O)O)cc1
55 | 152 to 155 °C | Cc1cccc(NC(=O)NC2N=C(CC(C)C)c3cccc(C)c3N(CC(=O)C3CCCCC3)C2=O)c1 (configuration not stated)
56 | 323 °C | CN(c1nc2cc(NC(=O)OC(C)(C)C)ccn2n1)C1CC1
57 | 160 to 161 °C | COC(=O)C(C)(C)NS(=O)(=O)c1ccc2c(Cl)cnc(Cl)c2c1
58 | 156 to 158 °C | CS(=O)(=O)c1ccc(-c2cnn(CC(F)(F)F)c(=O)c2Nc2cccc(F)c2)cc1
59 | 181 to 182 °C | NC(=O)N(O)CCNC(=O)c1cc2ccccc2o1
60 | > 300 °C | NC(=O)Cn1c(=O)c(=O)[nH]c2ccccc21
61 | 150 °C | COC(=O)CCn1c(=O)n(CCN2CCN(c3cccc(Cl)c3)CC2)c(=O)c2cscc21
62 | 61 to 65 °C | CC(O)=C(C(=O)OCc1ccccc1)N1C(=O)[C@@H](N2C(=O)c3ccccc3C2=O)[C@H]1COS(C)(=O)=O
63 | 126 to 128 °C | O=C1CCC(N2Cc3c(OCc4ccc(CN5CCC(F)(F)C5)cc4)cccc3C2=O)C(=O)N1 (configuration not stated)
64 | 160 to 161 °C | NC(=O)C(F)(F)C(O)(Cn1cncn1)c1ccccc1 (configuration not stated)
65 | 119 to 121 °C | C=Cc1c(N)nc(-c2ccc(Cl)c(OC)c2F)nc1C(=O)OCc1ccccc1
66 | 262 to 264 °C | Cn1cc(-c2ccc(C(=O)O)cn2)cn1
67 | 176 to 182 °C | OCC1OC(n2cnc3c(NC4CCN(Cc5ccccc5)CC4)ncnc32)C(O)C1O (configuration not stated)
68 | 94 to 98 °C | CC(=O)c1c(C)c2ccccc2n1N
69 | 212 to 215 °C | CC(C)C1Sc2ccccc2NC(=O)C1NC(=O)C(F)(F)F (configuration not stated)
70 | 246 to 248 °C | O=C(O)COc1cccc(-c2n[nH]c3c2Cc2ccccc2-3)c1
71 | 169 to 171 °C | CCN(CC)c1ccc(C2(N(c3ccccc3)c3ccc(NC(C)=O)cc3)OC(=O)c3ccccc32)c(C)c1 (configuration not stated)
72 | 119 °C | O=S(=O)(c1ccc(Cl)cc1)N1CCCC1c1ccccc1 (racemic)
